These are literature values, as cited in patent US7282218B2, “pH sensitive polymer for inhibiting transformation in drugs” (Council of Scientific and Industrial Research, priority 2003, dated 2007).

For series [1] the following is noted: humans.
For series [2] the following is noted: amorphous vs crystalline.

SMILES strings stand for the structures.

As to `CO/N=C(\C(=O)N[C@@H]1C(=O)N2C(C(=O)OC(C)OC(C)=O)=C(COC(N)=O)CS[C@H]12)c1ccco1` (some centres unmarked) [Cefuroxime axetil], the bioavailability in series [1] is listed as 32-50%.

With `CO[C@@H]1[C@@H](OC(N)=O)[C@@H](O)[C@H](Oc2ccc3c(O)c(NC(=O)c4ccc(O)c(CC=C(C)C)c4)c(=O)oc3c2C)OC1(C)C` [novobiocin], the “solubility of amorphous form relative to the crystalline form” value in series [2] was 10 times.
